Assay results: ChEMBL document CHEMBL1221276, “Structure-based design, synthesis, and biological evaluation of lipophilic-tailed monocationic inhibitors of neuronal nitric oxide synthase” (Bioorg Med Chem, 2010)

Key:
[1] = target: T1, Nitric oxide synthase 3 (Bos taurus, UniProt P29473); test: Inhibition of bovine recombinant eNOS expressed in Escherichia coli by hemoglobin capture assay
T1 sequence (P29473 whole entry): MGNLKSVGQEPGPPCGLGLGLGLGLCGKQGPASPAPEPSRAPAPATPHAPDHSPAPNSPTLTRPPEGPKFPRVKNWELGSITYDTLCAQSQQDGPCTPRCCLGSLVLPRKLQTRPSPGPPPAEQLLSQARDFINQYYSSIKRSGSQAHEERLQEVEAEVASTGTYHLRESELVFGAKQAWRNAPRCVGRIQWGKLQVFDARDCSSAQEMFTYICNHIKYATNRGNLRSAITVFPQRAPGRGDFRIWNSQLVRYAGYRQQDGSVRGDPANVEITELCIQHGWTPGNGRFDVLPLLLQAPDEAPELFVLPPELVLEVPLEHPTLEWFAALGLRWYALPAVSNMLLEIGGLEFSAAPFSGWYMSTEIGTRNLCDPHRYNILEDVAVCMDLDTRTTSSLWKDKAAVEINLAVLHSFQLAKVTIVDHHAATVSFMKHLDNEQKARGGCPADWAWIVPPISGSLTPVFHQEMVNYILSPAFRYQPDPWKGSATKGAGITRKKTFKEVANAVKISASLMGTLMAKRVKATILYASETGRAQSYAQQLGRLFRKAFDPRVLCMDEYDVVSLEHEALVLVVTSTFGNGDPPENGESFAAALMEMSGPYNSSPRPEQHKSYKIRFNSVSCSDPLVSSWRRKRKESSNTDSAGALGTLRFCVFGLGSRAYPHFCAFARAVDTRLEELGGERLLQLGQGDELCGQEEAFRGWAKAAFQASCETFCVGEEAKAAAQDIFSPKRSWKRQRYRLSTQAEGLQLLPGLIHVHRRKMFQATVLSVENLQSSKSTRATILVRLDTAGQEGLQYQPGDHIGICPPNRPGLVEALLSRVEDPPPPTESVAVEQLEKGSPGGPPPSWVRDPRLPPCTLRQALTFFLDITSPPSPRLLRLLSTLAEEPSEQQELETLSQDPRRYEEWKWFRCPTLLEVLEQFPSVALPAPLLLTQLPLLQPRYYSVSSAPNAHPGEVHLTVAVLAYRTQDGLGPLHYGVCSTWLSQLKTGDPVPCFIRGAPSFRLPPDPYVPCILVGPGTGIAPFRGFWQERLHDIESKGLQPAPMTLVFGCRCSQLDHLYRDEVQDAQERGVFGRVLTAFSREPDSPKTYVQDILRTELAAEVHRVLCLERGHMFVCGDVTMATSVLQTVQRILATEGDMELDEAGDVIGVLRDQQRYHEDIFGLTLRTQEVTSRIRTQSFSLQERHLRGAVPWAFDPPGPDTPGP

[2] = target: T2, Nitric oxide synthase, inducible (Mus musculus, UniProt P29477); test: Inhibition of mouse recombinant iNOS expressed in Escherichia coli by hemoglobin capture assay
T2 sequence (P29477 whole entry): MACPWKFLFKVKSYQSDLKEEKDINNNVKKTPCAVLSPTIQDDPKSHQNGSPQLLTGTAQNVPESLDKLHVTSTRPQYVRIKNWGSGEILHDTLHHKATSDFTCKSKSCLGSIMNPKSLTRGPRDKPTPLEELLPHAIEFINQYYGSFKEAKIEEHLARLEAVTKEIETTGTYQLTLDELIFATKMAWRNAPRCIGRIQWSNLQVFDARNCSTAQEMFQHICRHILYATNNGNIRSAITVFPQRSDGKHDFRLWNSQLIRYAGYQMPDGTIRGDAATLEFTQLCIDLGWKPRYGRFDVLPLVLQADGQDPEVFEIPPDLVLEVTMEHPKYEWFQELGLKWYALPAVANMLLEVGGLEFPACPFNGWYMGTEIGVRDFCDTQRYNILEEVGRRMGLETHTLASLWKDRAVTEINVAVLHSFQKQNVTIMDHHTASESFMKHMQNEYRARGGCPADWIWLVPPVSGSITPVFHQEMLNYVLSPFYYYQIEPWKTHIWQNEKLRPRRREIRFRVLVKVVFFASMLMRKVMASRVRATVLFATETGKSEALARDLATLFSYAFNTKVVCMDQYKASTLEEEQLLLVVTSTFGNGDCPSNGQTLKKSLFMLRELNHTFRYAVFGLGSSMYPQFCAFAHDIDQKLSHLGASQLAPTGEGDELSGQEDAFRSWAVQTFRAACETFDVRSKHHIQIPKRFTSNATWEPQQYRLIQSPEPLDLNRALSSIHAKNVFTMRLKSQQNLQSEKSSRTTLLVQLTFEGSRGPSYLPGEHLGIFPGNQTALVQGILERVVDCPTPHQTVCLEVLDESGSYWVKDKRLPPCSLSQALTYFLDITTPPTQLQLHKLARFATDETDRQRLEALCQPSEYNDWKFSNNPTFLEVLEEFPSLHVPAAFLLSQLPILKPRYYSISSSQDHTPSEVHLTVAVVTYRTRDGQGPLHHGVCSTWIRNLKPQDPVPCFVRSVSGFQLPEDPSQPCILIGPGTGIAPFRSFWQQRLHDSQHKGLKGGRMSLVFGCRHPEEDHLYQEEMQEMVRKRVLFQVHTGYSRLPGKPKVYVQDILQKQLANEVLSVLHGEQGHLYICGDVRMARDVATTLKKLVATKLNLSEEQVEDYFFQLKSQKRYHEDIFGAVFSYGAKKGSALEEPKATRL

[3] = target: Nitric oxide synthase 1 (Rattus norvegicus, UniProt P29476); test: Inhibition of rat recombinant nNOS expressed in Escherichia coli by hemoglobin capture assay
Sequence of Nitric oxide synthase 1 (P29476 whole entry): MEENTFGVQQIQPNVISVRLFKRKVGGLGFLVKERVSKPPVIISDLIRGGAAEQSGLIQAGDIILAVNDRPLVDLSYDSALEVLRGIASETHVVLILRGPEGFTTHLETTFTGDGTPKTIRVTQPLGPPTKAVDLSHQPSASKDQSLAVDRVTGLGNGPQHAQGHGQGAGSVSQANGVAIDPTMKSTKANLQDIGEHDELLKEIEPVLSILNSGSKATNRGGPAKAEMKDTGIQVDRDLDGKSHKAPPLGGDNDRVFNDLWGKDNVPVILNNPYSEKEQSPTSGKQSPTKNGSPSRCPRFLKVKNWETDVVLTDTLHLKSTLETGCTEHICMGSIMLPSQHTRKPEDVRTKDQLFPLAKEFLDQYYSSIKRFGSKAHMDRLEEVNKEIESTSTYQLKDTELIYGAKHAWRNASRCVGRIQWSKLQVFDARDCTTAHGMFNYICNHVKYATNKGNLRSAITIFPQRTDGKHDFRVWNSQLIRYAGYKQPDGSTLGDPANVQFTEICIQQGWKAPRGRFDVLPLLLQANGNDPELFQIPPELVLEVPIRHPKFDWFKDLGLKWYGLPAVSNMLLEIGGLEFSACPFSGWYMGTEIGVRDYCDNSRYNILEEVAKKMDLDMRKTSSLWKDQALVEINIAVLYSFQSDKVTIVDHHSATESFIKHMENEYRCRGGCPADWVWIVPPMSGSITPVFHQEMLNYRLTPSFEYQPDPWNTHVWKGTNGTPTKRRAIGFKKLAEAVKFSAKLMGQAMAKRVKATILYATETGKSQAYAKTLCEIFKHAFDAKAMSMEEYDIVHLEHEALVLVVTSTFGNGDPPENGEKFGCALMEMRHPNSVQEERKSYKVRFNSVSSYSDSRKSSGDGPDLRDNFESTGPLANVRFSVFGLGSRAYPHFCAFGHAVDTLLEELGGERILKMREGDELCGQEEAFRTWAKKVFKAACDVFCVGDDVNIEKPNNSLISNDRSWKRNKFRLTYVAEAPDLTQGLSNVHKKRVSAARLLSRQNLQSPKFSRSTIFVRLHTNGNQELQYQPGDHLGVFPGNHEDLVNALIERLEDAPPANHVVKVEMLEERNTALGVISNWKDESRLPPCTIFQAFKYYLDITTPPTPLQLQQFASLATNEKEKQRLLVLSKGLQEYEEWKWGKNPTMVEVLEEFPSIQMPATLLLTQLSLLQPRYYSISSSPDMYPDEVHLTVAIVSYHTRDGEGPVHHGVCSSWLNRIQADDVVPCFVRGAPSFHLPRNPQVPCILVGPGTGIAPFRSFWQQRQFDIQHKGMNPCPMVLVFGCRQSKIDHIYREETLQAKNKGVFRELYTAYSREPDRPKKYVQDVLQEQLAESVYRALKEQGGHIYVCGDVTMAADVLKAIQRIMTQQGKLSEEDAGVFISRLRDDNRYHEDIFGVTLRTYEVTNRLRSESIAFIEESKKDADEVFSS

| Structure (SMILES) | Ki [1] [µM] | Ki [2] [µM] | Ki [3] [µM] |
| --- | --- | --- | --- |
| Cc1cc(N)nc(C[C@@H]2CNC[C@@H]2OCc2ccc(-c3cccc(C(F)(F)F)c3)cc2)c1 (racemic) | 13.6 | 37.3 | – |
| Cc1cc(N)nc(C[C@@H]2CNC[C@@H]2OCc2ccc(-c3ccc(F)c(C)c3)cc2)c1 (racemic) | – | 22.1 | 0.62 |
| Cc1cc(N)nc(C[C@@H]2CNC[C@@H]2OCc2ccc(-c3cccc(F)c3)cc2)c1 (racemic) | 13.3 | 39.5 | 0.75 |
| Cc1cc(N)nc(C[C@@H]2CNC[C@@H]2OCc2ccc(-c3cccc(Cl)c3)cc2)c1 (racemic) | 26 | 55.6 | 1.2 |
| Nc1cccc(C[C@@H]2CNC[C@@H]2Oc2cccc(Oc3ccccc3)c2)n1 (racemic) | – | – | 3 |
| Cc1cc(N)nc(C[C@@H]2CNC[C@@H]2OCc2ccc(-c3ccc(F)c(Cl)c3)cc2)c1 (racemic) | – | – | 0.76 |
